Results on 4 compounds are retold here after patent publication US4595695A, “1'-ethoxycarbonyloxyethyl ester of valproic acid, its preparation and pharmaceutical compositions containing it” (Teva Pharmaceutical Industries Ltd., priority 1983, dated 1986).

Data set [1] in a line: stability of the ester in 0.01 N HCl. Type of data set: physicochemical. The conditions noted are these: room temperature, first order kinetics, read-out: stability half-life time in 0.01 N HCl (converted). The method, then: (§1) The ester was quite stable at -20° C. or after HCl was added to the plasma mixture. […] All these half-life time calculations were done by assuming a first order linear kinetics of hydrolysis of the ester to valproic acid.

A short description of data set [2]: pharmacokinetic parameters of VPA in dogs after oral administration of the ester or DEPAKINE;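 note: comparator arm received VPA orally as the free acid rather than as the ester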
It counts as in vivo, dog. The following applies: for ka, absorption rate constant / CL/F / AUC / Vd/F / k el / half-life / Tmax: VPA, 400 mg; for CL/F / AUC / Vd/F / k el / half-life / Tmax: dog, in vivo, po; for AUC: read-out: AUC, area under the plasma conc. vs. time curve (row head is drawing 3) (converted); for Vd/F: read-out: V; for k el: read-out: ke, elimination rate constant (converted); for half-life: read-out: t1/2 elimin. (converted); for Tmax: read-out: t max obs, observed time to reach peak plasma concentration (converted).

Data set [3] in a line: stability of the ester in plasma in vitro. It counts as in vitro ADME. The method, then: as §1
For another data set, the system named is rats. The data set can be described thus: toxicity after oral administration to rats. Type of data set: in vivo, rat. The following applies: 20 and 100 mg/kg.
Data set [4] in a line: expected VPA plasma concentration after single oral administration of the ester to man. Type of data set: in vivo. From the text:
Based on the prolonged absorption of VPA after administration of the ester, this new prodrug might be administered to epileptic patients twice or even once a day.

Data set [5] is described as follows: VPA plasma levels after oral administration of the ester to five dogs. Type of data set: in vivo, dog. The arrangement: key: --: Undetectable concentration of VPA. As for the experimental part: Concentration of VPA after oral administration of the ester of this invention to five dogs are presented in the following Table I. Each plasma sample was assayed three times and the results presented in Table I are mean ±S.D. of these analyses.

For the next data set, the system named is animals. The conditions noted are these: in vivo; cited from earlier work.
For data set [6] the following is noted: physiological pH; cited from earlier work.
For data set [7] the following is noted: combination therapy with other anti-epileptic drugs; cited from earlier work.
The conditions of data set [8]: oral; cited from earlier work.

Where two headings read alike, the source gives them in different places.

One may read the CL/F as clearance divided by bioavailability, as obtained after extravascular dosing. Broadly, the AUC is the area under the concentration-time curve, a measure of exposure.

On to `CCCC(CCC)C(=O)OC(C)OC(=O)OCC` (stereo not drawn) [1'-ethoxycarbonyloxyethyl ester, 1'-ethoxycarbonyloxyethyl ester of valproic acid], for which the half-life in data set [1] is 32.4 h; in data set [2] (dog 1, oral), 2.1 h; in data set [2] (dog 2, oral), 1.78 h; in [2] (dog 3, oral), 0.95 h; in data set [2] (dog 4, oral), 1.78 h; in data set [3] (plasma in vitro, room temperature, first order kinetics), 2.23 h. For the same compound, the “ka, absorption rate constant” value was 0.015 min⁻¹ in [2] (dog 1, oral); 0.02 min⁻¹ in data set [2] (dog 2, oral); 0.02 min⁻¹ in [2] (dog 3, oral); 0.01 min⁻¹ in [2] (dog 4, oral); 0.04 min⁻¹ in data set [2] (dog 5, oral). Also, the CL/F in [2] (dog 1) was found to be 66.7 mL/min; in data set [2] (dog 2) it was 34.8 mL/min; in [2] (dog 3), 61.5 mL/min; in [2] (dog 4), 56.5 mL/min; in data set [2] (dog 5), 42.7 mL/min. Besides, the area under the curve (AUC) in data set [2] (dog 1, oral) was 76800 ng·h/mL; in [2] (dog 2, oral), 167000 ng·h/mL; in data set [2] (dog 3, oral), 67700 ng·h/mL; in data set [2] (dog 4, oral), 81200 ng·h/mL; in data set [2] (dog 5, oral) it was 142000 ng·h/mL. The Vd/F in data set [2] (dog 1, oral) is 12.1 L; in data set [2] (dog 2, oral) it was 5.35 L; in [2] (dog 3, oral), 5.08 L; in data set [2] (dog 4, oral) it was 8.69 L; in data set [2] (dog 5, oral), 7.24 L. Further, the k el in data set [2] (dog 1, oral) was 9.17e-05 s⁻¹; in data set [2] (dog 2, oral), 0.000108 s⁻¹; in data set [2] (dog 3, oral) it was 0.00202 s⁻¹; in data set [2] (dog 4, oral), 0.000108 s⁻¹. The Tmax in [2] (dog 1, oral) was 2 h; in data set [2] (dog 2, oral), 1.4 h; in data set [2] (dog 3, oral), 1.17 h; in data set [2] (dog 4, oral), 2.5 h; in data set [2] (dog 5, oral), 1.2 h. For the same compound, the “VPA plasma levels between 30 to 240 minutes” value in data set [2] (dogs, after ester administration) was “More or less constant plasma levels”. Further, the “difference between the maximal and minimal steady state levels” value in [2] (dogs, between 30 to 240 minutes) was “less than a two-fold difference”. Moreover, in data set [2] (dogs, exception: V in dog number 1), the “distribution and elimination parameters of VPA compared between the two drug products” value is reported as “not significantly different”. In addition, the “absorption rate of VPA compared with free acid” value in data set [2] (dogs, oral, ester versus free acid) is “two to five times slower”. Besides, in data set [3] (-20° C. or HCl added to plasma mixture), the “stability at -20° C. or after HCl was added to the plasma mixture” value was “quite stable”. In addition, the “transformation to valproic acid in plasma” value in data set [3] (plasma in vitro, room temperature) is recorded as “transformed to valproic acid”. For the same compound, the toxicity result in the data set on rats is “did not show any toxicity”. Further, the “expected VPA concentration profile in man” value in data set [4] is on record as “prolonged pseudo steady state concentration”. Moreover, the VPA plasma levels entry in [5] (dog 1, 15 min) was “--”; in data set [5] (dog 1, 660 min), “--”; in data set [5] (dog 1, 720 min), “--”; in [5] (dog 1, 780 min), “--”; in data set [5] (dog 1, 840 min) it was “--”; in data set [5] (dog 1, 900 min), “--”. Also, the VPA plasma levels entry in [5] (dog 2, 660 min) is “--”; in data set [5] (dog 2, 840 min), “--”; in [5] (dog 2, 900 min), “--”; in [5] (dog 3, 720 min), “--”; in data set [5] (dog 3, 780 min) it was “--”; in data set [5] (dog 3, 840 min) it was “--”. Moreover, the VPA plasma levels result is listed as “--” in data set [5] (dog 3, 900 min); “--” in data set [5] (dog 4, 45 min); “--” in data set [5] (dog 4, 60 min); “--” in [5] (dog 4, 75 min); “--” in data set [5] (dog 4, 210 min); “--” in data set [5] (dog 4, 660 min). Moreover, the VPA plasma levels result is given as “--” in data set [5] (dog 4, 720 min); “--” in [5] (dog 4, 780 min); “--” in data set [5] (dog 4, 840 min); “--” in [5] (dog 4, 900 min); “--” in data set [5] (dog 5, 30 min); “--” in data set [5] (dog 5, 660 min). The VPA plasma levels entry in data set [5] (dog 5, 780 min) is “--”; in data set [5] (dog 5, 840 min), “--”; in data set [5] (dog 5, 900 min), “--”.

Consider `CCCC(CCC)COC(=O)C(CCC)CCC` [2-propylpentanol-di-n-propyl acetate], for which the toxicity to animals result in the data set with animals was “very toxic to animals”.

On to `CCCC(CCC)C(=O)O` [VPA, di-n-propylacetic acid], for which the “ionization of carboxylic group” value in data set [6] is recorded as “significantly ionized”. Besides, the “half life time in combination therapy” value in [7] is “even shorter than in a single therapy”.

In the case of `CCCC(CCC)C(N)=O` [VPD, Valpromide-dipropylacetamide], in data set [8], the “absorption compared with VPA” value was “slower absorption than VPA” and the bioavailability result is listed as “low bioavailability”.
